Source: US12185721B2, “Glycoside compound of fatty acids, composition comprising it, process for its obtention and methods to apply it on plants or fruits or both at the same time” (Consejo Nacional de Investigaciones Científicas y Técnicas …, priority 2020, dated 2025)
No end group written: not given here.

What was measured:
Salmonella Newport = conditions: described values; cited from earlier work
Rhodococcus fascians = conditions: values described for other antimicrobial compounds; cited from earlier work
Micrococcus sp. = conditions: described values; cited from earlier work
Bacillus subtilis = conditions: described values; cited from earlier work
Listeria monocytogenes = conditions: described values; cited from earlier work
[1] = test system: Colletotrichum fragariae F7; conditions: described values; cited from earlier work
[2] = test system: Colletotrichum gloeosporioides L9; conditions: described values; cited from earlier work
[3] = test system: Colletotrichum acutatum M11; conditions: described values; cited from earlier work
P. digitatum = assay: Protection against postharvest diseases in fruits of lemon tree, preventive effect; format: in vivo, Penicillum digitatum; conditions: Imazalil 500 ppm
Botritys cinerea = conditions: described values; cited from earlier work
Penicillum digitatum = conditions: described values; cited from earlier work
Pseudomona aeruginosa = conditions: described values; cited from earlier work
Proteus sp. = conditions: described values; cited from earlier work
Citrobacter sp. = conditions: described values; cited from earlier work
Escherichia coli MC 4100 = conditions: described values; cited from earlier work
Staphylococcus aureus = conditions: described values; cited from earlier work
[4] = test system: Staphylococcus epidermidis; conditions: described values; cited from earlier work
[5] = test system: Enterococcus faecium CRL35; conditions: described values; cited from earlier work
Colletotrichum acutatum = assay: Test for resistance to disease in strawberry plants (anthracnose); format: in vivo; conditions: salicylic acid 5 mM; acibenzolar-s-methyl 1 mM
Protocol: Healthy plants of the cv“Pájaro” (“Bird”) 3 months old of Fragaria×ananassa from in vitro tissue cultures, with the FLs compounds at a preferred concentration of 0.03 μg/ml were sprayed and 5 days later they were exposed to the pathogen fungus Colletotrichum acutatum, causative agent of the anthracnose disease (European Journal of Plant Pathology, (2007) 117, 109-122). The infected plants were incubated in a growth chamber under optimal conditions for the proliferation of the fungi and the development of the disease (28° C., 80% of relative humidity and a photoperiod of 16 hours). Seven days after incubation, the gravity symptoms of petiole disease were assessed according to the scale proposed by Delp and Milholland (Plant Disease, (1980), 64(12), 1071-1073), that assigns values of gravity comprised between 1 (healthy plant) and 5 (very grave or dead plant). As positive controls of the induction of a defense against pathogens, the treatment with FLs was replaced by salicylic acid 5 mM or 1 mM of […] or BTH, a salicylic acid analogous that induces a […] defense in plants. It is worth noting that the FLs, BTH and salicylic acid concentrations used were subinhibitory for C. acutatum growth. As a negative control of defense induction, the plants were sprayed with sterile distilled water.

B. cinerea (gray mold) = assay: Test for resistance to diseases in strawberry fruits, controlled conditions of growth; format: in vivo, Botrytis cinerea; conditions: FLs 10 μg/ml, HeT 0.8 mg/ml, sodium hypochlorite 4%
Protocol: (§1) Fruits inoculated under controlled conditions of growth: Healthy and ripe strawberries collected in the field were disinfected by means of washing in ethanol at 70%, sodium hypochlorite at 10% and sterile water. The disinfected fruits were immersed in an FLs solution (10 μg/ml) and incubated at 25° C., 90% of humidity and 16 hours of photoperiod. After 2 days of incubation, the surface of the treated fruits was inoculated with a fungus spore suspension of 20 μl ([…]) of B. cinerea or P. digitatum, and were incubated in the same growth conditions above described. Seven days after the pathogen inoculation, the incidence (% of infected fruits) and the severity (degree of affected fruit surface) of the disease were assessed. The fruits sprayed with a solution of sodium hypochlorite at 4% were used as a protection positive control and the sterile fruits treated with water, as negative controls. Besides, a treatment with the plant defense inducer HeT (0.8 mg/ml) was included. The FL and HeT concentrations were subinhibitory for fungal growth.

P. digitatum (blue mold) = assay: as above; format: in vivo, Penicillum digitatum; conditions: FLs 10 μg/ml, HeT 0.8 mg/ml, sodium hypochlorite 4%
Protocol: as §1

[6] = test system: C. michiganensis cytoplasmic membrane; assay: Test for depolarization of membranes, diSC3(5) fluorescence; format: cell-based; conditions: FLs 60 μg/ml; valinomycin 1 μM; C. michiganensis cells
Protocol: To study the possible mechanism underlying the FLs antimicrobial activity, the effect of the application of FLs upon C. michiganensis cytoplasmic membrane was assessed (FIG. 4), by using the cyanine stain method with 3,3′-Dipropylthiadicarbocianine iodide (diSC3 (5)) (Biochemistry (1999), 38(22), 7235-7242.).
The depolarization of the membrane in the bacterium C. michiganensis as controlled through changes in the intensity of the fluorescence emission of the diSC3 (5) membrane-sensitive stain (Biochemistry, (1999), 38(22), 7235-7242.). C. michiganensis was grown in LB liquid medium and incubated in a stirrer (120 rpm) at 26° C., up to the growth in a median logarithmic phase (OD600=0.5). The harvested cells were centrifuged and washed once (glucose 5 mM and HEPES 20 mM pH 7.3) and were suspended again up to a final OD600 final=0.05 in the same buffer. […]
After the addition of 0.4 μM de diSC3 (5), the sample cells that contained bacterial cells were incubated at 26° C. until a stable reduction of the fluorescence (about 5 minutes) was reached, what indicated the incorporation of the stain into the bacterial membrane. Afterwards, the FLs, valinomycin or water were added and the stain fluorescence increase at 622 nm (excitation wavelength) and 670 nm (emission wavelength) with a RF-5301 PC spectrofluorometer (Shimadzu, Kyoto, Japan) was recorded. […]

Xanthomonas fragariae = conditions: described values; cited from earlier work

NCC[C@H](O)C(=O)N[C@@H]1C[C@H](N)[C@@H](O[C@H]2O[C@H](CN)[C@@H](O)[C@H](O)[C@H]2O)[C@H](O)[C@H]1O[C@H]1O[C@H](CO)[C@@H](O)[C@H](N)[C@H]1O [Amikasin]
CE50 (μg/ml) for commercial antimicrobial (Salmonella Newport): Amikasin 2 μg/ml

CC[C@H]1OC(=O)[C@H](C)[C@@H](O[C@H]2C[C@@](C)(OC)[C@@H](O)[C@H](C)O2)[C@H](C)[C@@H](O[C@@H]2O[C@H](C)C[C@H](N(C)C)[C@H]2O)[C@](C)(O)C[C@@H](C)CN(C)[C@H](C)[C@@H](O)[C@]1(C)O [Azythromicin]
CE50 (μg/ml) for commercial antimicrobial (Rhodococcus fascians): Azythromicin 0.5 μg/ml | CE50 (μg/ml) for commercial antimicrobial (Micrococcus sp.): Azythromicin 0.12 μg/ml | CE50 (μg/ml) for commercial antimicrobial (Bacillus subtilis): Azythromicin 2 μg/ml | CE50 (μg/ml) for commercial antimicrobial (Listeria monocytogenes): Azythromicin 0.5 μg/ml

CCCCNC(=O)n1c(NC(=O)OC)nc2ccccc21 [Benomyl]
CE50 (μg/ml) for commercial antimicrobial [1]: Benomyl 0.29 μg/ml | CE50 (μg/ml) for commercial antimicrobial [2]: Benomyl 0.29 μg/ml

O=C1C2CC=CCC2C(=O)N1SC(Cl)(Cl)Cl (stereo not shown) [Captan]
CE50 (μg/ml) for commercial antimicrobial [3]: Captan 1 μg/ml

CC[C@H]1OC(=O)[C@H](C)[C@@H](O[C@H]2C[C@@](C)(OC)[C@@H](O)[C@H](C)O2)[C@H](C)[C@@H](O[C@@H]2O[C@H](C)C[C@H](N(C)C)[C@H]2O)[C@](C)(OC)C[C@@H](C)C(=O)[C@H](C)[C@@H](O)[C@]1(C)O [Clarythromicin]
CE50 (μg/ml) for commercial antimicrobial (Rhodococcus fascians): Clarythromicin 0.06 μg/ml | CE50 (μg/ml) for commercial antimicrobial (Micrococcus sp.): Clarythromicin 0.06 μg/ml | CE50 (μg/ml) for commercial antimicrobial (Bacillus subtilis): Clarythromicin 0.12 μg/ml | CE50 (μg/ml) for commercial antimicrobial (Listeria monocytogenes): Clarythromicin 0.12 μg/ml

CC[C@H]1OC(=O)[C@H](C)[C@@H](O[C@H]2C[C@@](C)(OC)[C@@H](O)[C@H](C)O2)[C@H](C)[C@@H](O[C@@H]2O[C@H](C)C[C@H](N(C)C)[C@H]2O)[C@](C)(O)C[C@@H](C)C(=O)[C@H](C)[C@@H](O)[C@]1(C)O [Erythromycin]
CE50 (μg/ml) for commercial antimicrobial (Rhodococcus fascians): Erythromycin 0.25 μg/ml | CE50 (μg/ml) for commercial antimicrobial (Micrococcus sp.): Erythromycin 0.12 μg/ml | CE50 (μg/ml) for commercial antimicrobial (Bacillus subtilis): Erythromycin 0.25 μg/ml | CE50 (μg/ml) for commercial antimicrobial (Listeria monocytogenes): Erythromycin 0.25 μg/ml

C=CCOC(Cn1ccnc1)c1ccc(Cl)cc1Cl (stereo not shown) [Imazalil]
protection of lemons compared with FLs 0.1 mg/ml (P. digitatum): comparable | CE50 (μg/ml) for commercial antimicrobial (Botritys cinerea): Imazalil 8 μg/ml | CE50 (μg/ml) for commercial antimicrobial (Penicillum digitatum): Imazalil 6 μg/ml

C[C@@H](O)[C@H]1C(=O)N2C(C(=O)O)=C(S[C@@H]3CN[C@H](C(=O)N(C)C)C3)[C@H](C)[C@H]12 [Meropenem]
CE50 (μg/ml) for commercial antimicrobial (Pseudomona aeruginosa): Meropenem 0.2 μg/ml | CE50 (μg/ml) for commercial antimicrobial (Proteus sp.): Meropenem 0.1 μg/ml | CE50 (μg/ml) for commercial antimicrobial (Citrobacter sp.): Meropenem 0.02 μg/ml | CE50 (μg/ml) for commercial antimicrobial (Escherichia coli MC 4100): Meropenem 0.01 μg/ml

CN[C@H](CC(C)C)C(=O)N[C@H]1C(=O)N[C@@H](CC(N)=O)C(=O)N[C@H]2C(=O)N[C@H]3C(=O)N[C@H](C(=O)N[C@H](C(=O)O)c4cc(O)cc(O)c4-c4cc3ccc4O)[C@H](O)c3ccc(c(Cl)c3)Oc3cc2cc(c3O[C@@H]2O[C@H](CO)[C@@H](O)[C@H](O)[C@H]2O[C@H]2C[C@](C)(N)[C@H](O)[C@H](C)O2)Oc2ccc(cc2Cl)[C@H]1O [Vancomycin]
CE50 (μg/ml) for commercial antimicrobial (Staphylococcus aureus): Vancomycin 0.78 μg/ml | CE50 (μg/ml) for commercial antimicrobial [4]: Vancomycin 1.56 μg/ml | CE50 (μg/ml) for commercial antimicrobial [5]: Vancomycin 0.78 μg/ml

CSC(=O)c1cccc2nnsc12 [acibenzolar-s-methyl]
protection against anthracnose compared with FLs (Colletotrichum acutatum): comparable

O=C(O)c1ccccc1O [salicylic acid]
protection against anthracnose compared with FLs (Colletotrichum acutatum): comparable

OCl [sodium hypochlorite, reference compound]
reduction of gray mold incidence (B. cinerea (gray mold)): 70% | reduction of gray mold severity (B. cinerea (gray mold)): 45% | reduction of blue mold incidence (P. digitatum (blue mold)): 50% | reduction of blue mold severity (P. digitatum (blue mold)): 40%

CC(C)[C@@H]1NC(=O)[C@H](C)OC(=O)[C@@H](C(C)C)NC(=O)[C@@H](C(C)C)OC(=O)[C@H](C(C)C)NC(=O)[C@H](C)OC(=O)[C@@H](C(C)C)NC(=O)[C@@H](C(C)C)OC(=O)[C@H](C(C)C)NC(=O)[C@H](C)OC(=O)[C@@H](C(C)C)NC(=O)[C@@H](C(C)C)OC1=O [valinomycin, reference compound]
increase of diSC3 (5) fluorescence (membrane depolarization) [6]: induced a fluorescence increase similar to the one seen with the FL compound

Cecropin B (KWKVFKKIEKMGRNIRNGIVKAGPAIAVLGEAKAL; ends and bridges not checked; UniProt P01508 27-61, looked up) [commercial antimicrobial]
CE50 (μg/ml) for commercial antimicrobial (Xanthomonas fragariae): Cecropin B 0.04 μg/ml
